pIC50: −log10 of the molar value. A value given as a limit tells only on which side of the number the result lay.

T1 sequence (P31749 whole entry E17K): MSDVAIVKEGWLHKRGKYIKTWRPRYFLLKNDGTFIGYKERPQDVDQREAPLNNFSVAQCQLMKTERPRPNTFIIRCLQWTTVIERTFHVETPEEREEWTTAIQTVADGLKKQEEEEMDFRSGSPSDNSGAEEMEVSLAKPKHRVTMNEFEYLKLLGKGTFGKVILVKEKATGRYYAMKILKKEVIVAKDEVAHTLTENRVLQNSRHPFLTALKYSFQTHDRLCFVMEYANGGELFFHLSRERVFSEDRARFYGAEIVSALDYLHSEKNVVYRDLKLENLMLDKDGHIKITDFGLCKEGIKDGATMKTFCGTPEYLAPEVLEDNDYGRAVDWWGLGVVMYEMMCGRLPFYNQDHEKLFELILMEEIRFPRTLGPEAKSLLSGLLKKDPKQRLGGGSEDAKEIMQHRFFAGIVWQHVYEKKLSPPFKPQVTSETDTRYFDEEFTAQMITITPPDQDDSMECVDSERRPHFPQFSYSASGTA

The first assay concerns the target T1, full length AKT E17K (Homo sapiens, UniProt P31749, E17K).
T1 construct: host or cells: HEK-293 (ATCC CRL-1573)
The assay is described as follows: NanoBRET Target Engagement (TE) Assay. It counts as cell-based. To be noted: competitive displacement of tracer in cells, read-out: AKT1 E17K IC50. In short, it runs like this: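 Compound and tracer incubated 2 h before luminescence at donor 450 nm and acceptor 600 nm, with extracellular signal inhibited. EC50 by sigmoidal variable-slope regression.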
Background: BRET reads energy transfer from a luciferase to a nearby fluorophore.
The term pIC50 denotes −log10 of the IC50, conventionally taken in molar units. For the molecule `N#Cc1nccc(NC2CCN(Cc3ccc(-n4c(-c5cccnc5N)nc5ccc(-c6ccc(F)cn6)cc54)cc3)CC2)n1` [Example 602, 4-((1-(4-(2-(2-Aminopyridin-3-yl)-6-(5-fluoropyridin-2-yl)-1H-benzo[d]imidazol-1-yl)benzyl)piperidin-4-yl)amino)pyrimidine-2-carbonitrile], the pIC50 is above 7.82.
With `CC(=O)N(C)c1cccc(-c2ccc3nc(-c4cccnc4N)n(-c4ccc(CN5CCC(Nc6ccnc(C#N)n6)CC5)cc4)c3n2)c1` [Example 514, N-(3-(2-(2-Aminopyridin-3-yl)-3-(4-((4-((2-cyanopyrimidin-4-yl)amino)piperidin-1-yl)methyl)phenyl)-3H-imidazo[4,5-b]pyridin-5-yl)phenyl)-N-methylacetamide], the negative-log IC50 (pIC50) was above 7.82.
Regarding `N#Cc1nccc(NC2CCN(Cc3ccc(-n4c(-c5cccnc5N)nc5cncnc54)cc3)CC2)n1` [Example 505, 4-((1-(4-(8-(2-Aminopyridin-3-yl)-9H-purin-9-yl)benzyl)piperidin-4-yl)amino)pyrimidine-2-carbonitrile], the pIC50 was 6.22 to 7.22.
The same measure, in the same setting: then `CCc1ccc(-c2ccc3nc(-c4cccnc4N)n(-c4ccc(CN5CCC(Nc6ccnc(C#N)n6)CC5)cc4)c3n2)nc1` [Example 647, 4-((1-(4-(2-(2-Aminopyridin-3-yl)-5-(5-ethylpyridin-2-yl)-3H-imidazo[4,5-b]pyridin-3-yl)benzyl)piperidin-4-yl)amino)pyrimidine-2-carbonitrile], with above 7.82.
Still for that read-out and setting: under `N#Cc1nccc(N2C[C@@H]3CN(Cc4ccc(-n5c(-c6cccnc6N)nc6ccc(-c7ccccc7)nc65)cc4)C[C@H]3C2)n1` [Example 367, 4-((3aS,6aS)-5-(4-(2-(2-aminopyridin-3-yl)-5-phenyl-3H-imidazo[4,5-b]pyridin-3-yl)benzyl)hexahydropyrrolo[3,4-c]pyrrol-2(1H)-yl)pyrimidine-2-carbonitrile] stands above 7.82; under `N#Cc1nccc(NC2CCN(Cc3ccc(-n4c(-c5cccnc5N)nc5ccc(CF)nc54)cc3)CC2)n1` [Example 509, 4-((1-(4-(2-(2-Aminopyridin-3-yl)-5-(fluoromethyl)-3H-imidazo[4,5-b]pyridin-3-yl)benzyl)piperidin-4-yl)amino)pyrimidine-2-carbonitrile], above 7.82.
The same measure, in the same setting: under `[2H]c1nn(C)nc1-c1ccc2nc(-c3nccnc3N)n(-c3ccc(CN4CCC(Nc5ccnc(C#N)n5)CC4)cc3)c2n1` [Example 634, 4-((1-(4-(2-(3-Aminopyrazin-2-yl)-5-(2-methyl-2H-1,2,3-triazol-4-yl-5-d)-3H-imidazo[4,5-b]pyridin-3-yl)benzyl)piperidin-4-yl)amino)pyrimidine-2-carbonitrile] stands above 7.82.
Take `[2H]C([2H])([2H])c1nn(C)nc1-c1ccc2nc(-c3cccnc3N)n(-c3ccc(CN4CCC(Nc5ccnc(C#N)n5)CC4)cc3)c2n1` [Example 612, 4-((1-(4-(2-(2-Aminopyridin-3-yl)-5-(2-methyl-5-(methyl-d3)-2H-1,2,3-triazol-4-yl)-3H-imidazo[4,5-b]pyridin-3-yl)benzyl)piperidin-4-yl)amino)pyrimidine-2-carbonitrile]: the negative-log IC50 (pIC50) was above 7.82.
The same measure, in the same setting: then `N#Cc1cc2c(cn1)nc(-c1cccnc1N)n2-c1ccc(CN2CCC(Nc3ccnc(C#N)n3)CC2)cc1` [Example 553, 2-(2-Aminopyridin-3-yl)-1-(4-((4-((2-cyanopyrimidin-4-yl)amino)piperidin-1-yl)methyl)phenyl)-1H-imidazo[4,5-c]pyridine-6-carbonitrile], with 7.22 to 7.82.
As for `N#Cc1nccc(NC2CCN(Cc3ccc(-n4c(-c5nccnc5N)nc5ccc(-c6cnn(CF)n6)nc54)cc3)CC2)n1` [Example 627, 4-((1-(4-(2-(3-Aminopyrazin-2-yl)-5-(2-(fluoromethyl)-2H-1,2,3-triazol-4-yl)-3H-imidazo[4,5-b]pyridin-3-yl)benzyl)piperidin-4-yl)amino)pyrimidine-2-carbonitrile], the negative logarithm of the IC50 (pIC50) was above 7.82.
On to `N#Cc1nccc(N2C[C@@H]3CN(Cc4ccc(-n5c(-c6cccnc6N)nc6ccc(-c7ccc(F)cc7)nc65)cc4)C[C@H]3C2)n1` [Example 450, 4-((3aS,6aS)-5-(4-(2-(2-Aminopyridin-3-yl)-5-(4-fluorophenyl)-3H-imidazo[4,5-b]pyridin-3-yl)benzyl)hexahydropyrrolo[3,4-c]pyrrol-2(1H)-yl)pyrimidine-2-carbonitrile], for which the negative logarithm of the IC50 (pIC50) was 7.22 to 7.82.
In the case of `C[C@@H]1CN(Cc2ccc(-n3c(-c4cccnc4N)nc4ccc(-c5ccccc5)nc43)cc2)C[C@H](C)N1c1nccc(C#N)n1` [Example 379, 2-((2S,6R)-4-(4-(2-(2-Aminopyridin-3-yl)-5-phenyl-3H-imidazo[4,5-b]pyridin-3-yl)benzyl)-2,6-dimethylpiperazin-1-yl)pyrimidine-4-carbonitrile], the pIC50 is 5.00 to 6.22.
On to `COc1cncc(-c2ccc3nc(-c4cccnc4N)n(-c4ccc(CN5CCC(Nc6ccnc(C#N)n6)CC5)cc4)c3n2)c1` [Example 512, 4-((1-(4-(2-(2-Aminopyridin-3-yl)-5-(5-methoxypyridin-3-yl)-3H-imidazo[4,5-b]pyridin-3-yl)benzyl)piperidin-4-yl)amino)pyrimidine-2-carbonitrile], for which the pIC50 is above 7.82.
The same measure, in the same setting: then `N#Cc1nccc(N2CC3(CN(Cc4ccc(-n5c(-c6cccnc6N)nc6ccc(-c7ccccc7)nc65)cc4)C3)C2)n1` [Example 366, 4-(6-(4-(2-(2-Aminopyridin-3-yl)-5-phenyl-3H-imidazo[4,5-b]pyridin-3-yl)benzyl)-2,6-diazaspiro[3.3]heptan-2-yl)pyrimidine-2-carbonitrile], with above 7.82.

The assay is the same for the next values; noted with them: competitive tracer displacement in living cells, read-out: AKT1 E17K IC50.
In the case of `N#Cc1ncnc(N2CC3CCC(C2)N3Cc2ccc(-n3c(-c4cccnc4N)nc4ccc(N5CCOCC5)nc43)cc2)n1` [Example 285, 4-(8-(4-(2-(2-Aminopyridin-3-yl)-5-morpholino-3H-imidazo[4,5-b]pyridin-3-yl)benzyl)-3,8-diazabicyclo[3.2.1]octan-3-yl)-1,3,5-triazine-2-carbonitrile], the pIC50 was above 7.82.
The same measure, in the same setting: under `N#Cc1cc(N2CCN(Cc3ccc(-n4c(-c5cccnc5N)nc5ccc(N6CCOCC6)nc54)cc3)CC2)ncn1` [Example 237, 6-(4-(4-(2-(2-Aminopyridin-3-yl)-5-morpholino-3H-imidazo[4,5-b]pyridin-3-yl)benzyl)piperazin-1-yl)pyrimidine-4-carbonitrile] stands 7.22 to 7.82.
With `N#Cc1ncnc(N2CC3(CCN(Cc4ccc(-n5c(-c6cccnc6N)nc6ccc(-c7ccccc7)nc65)cc4)CC3)C2)n1` [Example 249, 4-(7-(4-(2-(2-aminopyridin-3-yl)-5-phenyl-3H-imidazo[4,5-b]pyridin-3-yl)benzyl)-2,7-diazaspiro[3.5]nonan-2-yl)-1,3,5-triazine-2-carbonitrile], the negative logarithm of the IC50 (pIC50) was 7.22 to 7.82.
`N#Cc1cccnc1OC1CCN(Cc2ccc(-n3c(-c4cccnc4N)nc4cc(-c5ccccc5)cnc43)cc2)CC1` [Example 12, 2-((1-(4-(2-(2-Aminopyridin-3-yl)-6-phenyl-3H-imidazo[4,5-b]pyridin-3-yl)benzyl)piperidin-4-yl)oxy)nicotinonitrile]: the negative-log IC50 (pIC50) is 5.00 to 6.22.
Still for that read-out and setting: then `N#Cc1cc(C(=O)N2CCN(Cc3ccc(-n4c(-c5cccnc5N)nc5cc(-c6ccccc6)cnc54)cc3)CC2)ccn1` [Example 137, 4-(4-(4-(2-(2-Aminopyridin-3-yl)-6-phenyl-3H-imidazo[4,5-b]pyridin-3-yl)benzyl)piperazine-1-carbonyl)picolinonitrile], with 5.00 to 6.22; and `C[C@@H]1CN(Cc2ccc(-n3c(-c4cccnc4N)nc4ccc(-c5ccccc5)nc43)cc2)C[C@@H](C)N1c1nccc(C#N)n1` [Example 196, 2-((2R,6R)-4-(4-(2-(2-aminopyridin-3-yl)-5-phenyl-3H-imidazo[4,5-b]pyridin-3-yl)benzyl)-2,6-dimethylpiperazin-1-yl)pyrimidine-4-carbonitrile], with 6.22 to 7.22; and `N#Cc1ccnc(OC2CCN(Cc3ccc(-n4c(-c5cccnc5N)nc5cccnc54)cc3)CC2)c1` [Example 5, 2-((1-(4-(2-(2-aminopyridin-3-yl)-3H-imidazo[4,5-b]pyridin-3-yl)benzyl)piperidin-4-yl)oxy)isonicotinonitrile], with 5.00 to 6.22.
The same measure, in the same setting: then `N#Cc1ncnc(N2C3CCC2CN(Cc2ccc(-n4c(-c5cccnc5N)nc5ccc(-c6ccccc6)nc54)cc2)C3)n1` [Example 270, 4-(3-(4-(2-(2-Aminopyridin-3-yl)-5-phenyl-3H-imidazo[4,5-b]pyridin-3-yl)benzyl)-3,8-diazabicyclo[3.2.1]octan-8-yl)-1,3,5-triazine-2-carbonitrile], with 6.22 to 7.22; and `N#Cc1ccc(OC2CCN(Cc3ccc(-n4c(-c5cccnc5N)nc5cccnc54)cc3)CC2)nc1` [Example 1, 6-((1-(4-(2-(2-Aminopyridin-3-yl)-3H-imidazo[4,5-b]pyridin-3-yl)benzyl)piperidin-4-yl)oxy)nicotinonitrile], with 5.00 to 6.22; and `C[C@H]1CN(Cc2ccc(-n3c(-c4cccnc4N)nc4ccc(-c5ccccc5)nc43)cc2)CCN1c1ncnc(C#N)n1` [Example 274, (S)-4-(4-(4-(2-(2-Aminopyridin-3-yl)-5-phenyl-3H-imidazo[4,5-b]pyridin-3-yl)benzyl)-2-methylpiperazin-1-yl)-1,3,5-triazine-2-carbonitrile], with 7.22 to 7.82.
On to `N#Cc1cccc(C(=O)NCc2ccc(-n3c(-c4cccnc4N)nc4cccnc43)cc2)n1` [Example 108, N-(4-(2-(2-Aminopyridin-3-yl)-3H-imidazo[4,5-b]pyridin-3-yl)benzyl)-6-cyanopicolinamide], for which the negative-log IC50 (pIC50) was 5.00 to 6.22.
Same read-out and setting: under `C[C@@H]1CN(Cc2ccc(-n3c(-c4cccnc4N)nc4ccc(-c5ccccc5)nc43)cc2)CCN1c1ccnc(C#N)n1` [Example 225, (R)-4-(4-(4-(2-(2-aminopyridin-3-yl)-5-phenyl-3H-imidazo[4,5-b]pyridin-3-yl)benzyl)-2-methylpiperazin-1-yl)pyrimidine-2-carbonitrile] stands 6.22 to 7.22.

These data come from patent US12209087B2, “AKT1 modulators” (Alterome Therapeutics, Inc., priority 2022, dated 2025).
